# Like-named read-outs stand apart in the source and are kept apart here.
structure (smiles),measurement,setting,value
O=C(Nc1ccc(Oc2ccnc3c2CCN3)c(F)c1)c1c[nH]cc(-c2ccc(F)cc2)c1=O,"TRAE Rash maculo-papular, any grade",600 mg QD (n=10),0 n (%)
same,"TRAE Rash maculo-papular, grade 3-4",600 mg QD (n=10),0 n (%)
same,"TRAE Sinus tachycardia, any grade",600 mg QD (n=10),1 (10.0) n (%)
same,"TRAE Sinus tachycardia, grade 3-4",600 mg QD (n=10),0 n (%)
same,"TRAE Skin fissures, any grade",600 mg QD (n=10),1 (10.0) n (%)
same,"TRAE Skin fissures, grade 3-4",600 mg QD (n=10),1 (10.0) n (%)
same,"TRAE Supraventricular extrasystoles, any grade",600 mg QD (n=10),1 (10.0) n (%)
same,"TRAE Supraventricular extrasystoles, grade 3-4",600 mg QD (n=10),0 n (%)
same,"TRAE Thrombocytopenia, any grade",600 mg QD (n=10),1 (10.0) n (%)
same,"TRAE Thrombocytopenia, grade 3-4",600 mg QD (n=10),1 (10.0) n (%)
same,"TRAE Upper respiratory tract infection, any grade",600 mg QD (n=10),0 n (%)
same,"TRAE Upper respiratory tract infection, grade 3-4",600 mg QD (n=10),0 n (%)
same,"TRAE Urinary retention, any grade",600 mg QD (n=10),1 (10.0) n (%)
same,"TRAE Urinary retention, grade 3-4",600 mg QD (n=10),0 n (%)
same,"TRAE Urinary tract infection, any grade",600 mg QD (n=10),2 (20.0) n (%)
same,"TRAE Urinary tract infection, grade 3-4",600 mg QD (n=10),0 n (%)
same,"TRAE Ventricular arrhythmia, any grade",600 mg QD (n=10),1 (10.0) n (%)
same,"TRAE Ventricular arrhythmia, grade 3-4",600 mg QD (n=10),0 n (%)
same,"TRAE Ventricular extrasystoles, any grade",600 mg QD (n=10),0 n (%)
same,"TRAE Ventricular extrasystoles, grade 3-4",600 mg QD (n=10),0 n (%)
same,"TRAE Vomiting, any grade",600 mg QD (n=10),0 n (%)
same,"TRAE Vomiting, grade 3-4",600 mg QD (n=10),0 n (%)
same,"TRAE Weight loss, any grade",600 mg QD (n=10),1 (10.0) n (%)
same,"TRAE Weight loss, grade 3-4",600 mg QD (n=10),0 n (%)
same,"SAEs, patients",Total (n=38),13.2%
same,"TRAE Accessory nerve disorder, any grade",Total (n=38),1 (2.6) n (%)
same,"TRAE Accessory nerve disorder, grade 3-4",Total (n=38),0 n (%)
same,"TRAE Activated partial thromboplastin time prolonged, any grade",Total (n=38),2 (5.3) n (%)
same,"TRAE Activated partial thromboplastin time prolonged, grade 3-4",Total (n=38),0 n (%)
same,"TRAE Anaemia, any grade",Total (n=38),2 (5.3) n (%)
same,"TRAE Anaemia, grade 3-4",Total (n=38),1 (2.6) n (%)
same,"TRAE Anaesthesia oral, any grade",Total (n=38),1 (2.6) n (%)
same,"TRAE Anaesthesia oral, grade 3-4",Total (n=38),0 n (%)
same,"TRAE Arrhythmia, any grade",Total (n=38),1 (2.6) n (%)
same,"TRAE Arrhythmia, grade 3-4",Total (n=38),0 n (%)
same,"TRAE Arthralgia, any grade",Total (n=38),1 (2.6) n (%)
same,"TRAE Arthralgia, grade 3-4",Total (n=38),0 n (%)
same,"TRAE Asthenia, any grade",Total (n=38),5 (13.2) n (%)
same,"TRAE Asthenia, grade 3-4",Total (n=38),1 (2.6) n (%)
same,"TRAE Blister, any grade",Total (n=38),1 (2.6) n (%)
same,"TRAE Blister, grade 3-4",Total (n=38),0 n (%)
same,"TRAE Chest discomfort, any grade",Total (n=38),1 (2.6) n (%)
same,"TRAE Chest discomfort, grade 3-4",Total (n=38),0 n (%)
same,"TRAE Chronic kidney disease, any grade",Total (n=38),1 (2.6) n (%)
same,"TRAE Chronic kidney disease, grade 3-4",Total (n=38),0 n (%)
same,"TRAE Constipation, any grade",Total (n=38),8 (21.1) n (%)
same,"TRAE Constipation, grade 3-4",Total (n=38),0 n (%)
same,"TRAE Cough, any grade",Total (n=38),1 (2.6) n (%)
same,"TRAE Cough, grade 3-4",Total (n=38),0 n (%)
same,"TRAE Decreased Ccr, any grade",Total (n=38),6 (15.8) n (%)
same,"TRAE Decreased Ccr, grade 3-4",Total (n=38),0 n (%)
same,"TRAE Decreased appetite, any grade",Total (n=38),5 (13.2) n (%)
same,"TRAE Decreased appetite, grade 3-4",Total (n=38),1 (2.6) n (%)
same,"TRAE Diarrhoea, any grade",Total (n=38),3 (7.9) n (%)
same,"TRAE Diarrhoea, grade 3-4",Total (n=38),0 n (%)
same,"TRAE Dizziness, any grade",Total (n=38),1 (2.6) n (%)
same,"TRAE Dizziness, grade 3-4",Total (n=38),0 n (%)
same,"TRAE Dry mouth, any grade",Total (n=38),3 (7.9) n (%)
same,"TRAE Dry mouth, grade 3-4",Total (n=38),0 n (%)
same,"TRAE Dysgeusia, any grade",Total (n=38),9 (23.7) n (%)
same,"TRAE Dysgeusia, grade 3-4",Total (n=38),1 (2.6) n (%)
same,"TRAE Dyskinesia, any grade",Total (n=38),1 (2.6) n (%)
same,"TRAE Dyskinesia, grade 3-4",Total (n=38),1 (2.6) n (%)
same,"TRAE Dysphonia, any grade",Total (n=38),1 (2.6) n (%)
same,"TRAE Dysphonia, grade 3-4",Total (n=38),0 n (%)
same,"TRAE Dyspnoea, any grade",Total (n=38),1 (2.6) n (%)
same,"TRAE Dyspnoea, grade 3-4",Total (n=38),1 (2.6) n (%)
same,"TRAE Electrocardiogram QT prolonged, any grade",Total (n=38),1 (2.6) n (%)
same,"TRAE Electrocardiogram QT prolonged, grade 3-4",Total (n=38),0 n (%)
same,"TRAE Elevated ALT, any grade",Total (n=38),14 (36.8) n (%)
same,"TRAE Elevated ALT, grade 3-4",Total (n=38),0 n (%)
same,"TRAE Elevated AST, any grade",Total (n=38),11 (28.9) n (%)
same,"TRAE Elevated AST, grade 3-4",Total (n=38),0 n (%)
same,"TRAE Elevated D dimer, any grade",Total (n=38),1 (2.6) n (%)
same,"TRAE Elevated D dimer, grade 3-4",Total (n=38),0 n (%)
same,"TRAE Elevated GGT, any grade",Total (n=38),1 (2.6) n (%)
same,"TRAE Elevated GGT, grade 3-4",Total (n=38),0 n (%)
same,"TRAE Elevated LDH, any grade",Total (n=38),1 (2.6) n (%)
same,"TRAE Elevated LDH, grade 3-4",Total (n=38),0 n (%)
same,"TRAE Elevated alpha-HBDH, any grade",Total (n=38),1 (2.6) n (%)
same,"TRAE Elevated alpha-HBDH, grade 3-4",Total (n=38),0 n (%)
same,"TRAE Elevated bilirubin, any grade",Total (n=38),3 (7.9) n (%)
same,"TRAE Elevated bilirubin, grade 3-4",Total (n=38),0 n (%)
same,"TRAE Elevated blood creatinine, any grade",Total (n=38),7 (18.4) n (%)
same,"TRAE Elevated blood creatinine, grade 3-4",Total (n=38),0 n (%)
same,"TRAE Elevated creatine phosphokinase, any grade",Total (n=38),3 (7.9) n (%)
same,"TRAE Elevated creatine phosphokinase, grade 3-4",Total (n=38),0 n (%)
same,"TRAE Elevated serum urea, any grade",Total (n=38),1 (2.6) n (%)
same,"TRAE Elevated serum urea, grade 3-4",Total (n=38),0 n (%)
same,"TRAE Elevated troponin, any grade",Total (n=38),1 (2.6) n (%)
same,"TRAE Elevated troponin, grade 3-4",Total (n=38),0 n (%)
same,"TRAE Genital rash, any grade",Total (n=38),1 (2.6) n (%)
same,"TRAE Genital rash, grade 3-4",Total (n=38),0 n (%)
same,"TRAE Haematuria, any grade",Total (n=38),3 (7.9) n (%)
same,"TRAE Haematuria, grade 3-4",Total (n=38),0 n (%)
same,"TRAE Headache, any grade",Total (n=38),1 (2.6) n (%)
same,"TRAE Headache, grade 3-4",Total (n=38),0 n (%)
same,"TRAE Hyperhidrosis, any grade",Total (n=38),1 (2.6) n (%)
same,"TRAE Hyperhidrosis, grade 3-4",Total (n=38),0 n (%)
same,"TRAE Hyperlipidaemia, any grade",Total (n=38),1 (2.6) n (%)
same,"TRAE Hyperlipidaemia, grade 3-4",Total (n=38),0 n (%)
same,"TRAE Hypertension, any grade",Total (n=38),4 (10.5) n (%)
same,"TRAE Hypertension, grade 3-4",Total (n=38),1 (2.6) n (%)
same,"TRAE Hypoaesthesia oral, any grade",Total (n=38),2 (5.3) n (%)
same,"TRAE Hypoaesthesia oral, grade 3-4",Total (n=38),0 n (%)
same,"TRAE Hypocalcaemia, any grade",Total (n=38),1 (2.6) n (%)
same,"TRAE Hypocalcaemia, grade 3-4",Total (n=38),0 n (%)
same,"TRAE Hypotension, any grade",Total (n=38),1 (2.6) n (%)
same,"TRAE Hypotension, grade 3-4",Total (n=38),0 n (%)
same,"TRAE Insomnia, any grade",Total (n=38),1 (2.6) n (%)
same,"TRAE Insomnia, grade 3-4",Total (n=38),0 n (%)
same,"TRAE Leukopenia, any grade",Total (n=38),3 (7.9) n (%)
same,"TRAE Leukopenia, grade 3-4",Total (n=38),0 n (%)
same,"TRAE Nausea, any grade",Total (n=38),3 (7.9) n (%)
same,"TRAE Nausea, grade 3-4",Total (n=38),0 n (%)
same,"TRAE Neuritis, any grade",Total (n=38),2 (5.3) n (%)
same,"TRAE Neuritis, grade 3-4",Total (n=38),0 n (%)
same,"TRAE Occult blood, any grade",Total (n=38),2 (5.3) n (%)
same,"TRAE Occult blood, grade 3-4",Total (n=38),0 n (%)
same,"TRAE Oedema peripheral, any grade",Total (n=38),2 (5.3) n (%)
same,"TRAE Oedema peripheral, grade 3-4",Total (n=38),0 n (%)
same,"TRAE Onycholysis, any grade",Total (n=38),1 (2.6) n (%)
same,"TRAE Onycholysis, grade 3-4",Total (n=38),0 n (%)
same,"TRAE Oropharyngeal pain, any grade",Total (n=38),1 (2.6) n (%)
same,"TRAE Oropharyngeal pain, grade 3-4",Total (n=38),1 (2.6) n (%)
same,TRAE PPE,Total (n=38),23.7%
same,"TRAE PPE, any grade",Total (n=38),9 (23.7) n (%)
same,"TRAE PPE, grade 3-4",Total (n=38),4 (10.5) n (%)
same,"TRAE Paraesthesia, any grade",Total (n=38),1 (2.6) n (%)
same,"TRAE Paraesthesia, grade 3-4",Total (n=38),0 n (%)
same,"TRAE Proteinuria, any grade",Total (n=38),4 (10.5) n (%)
same,"TRAE Proteinuria, grade 3-4",Total (n=38),1 (2.6) n (%)
same,"TRAE Pruritus, any grade",Total (n=38),1 (2.6) n (%)
same,"TRAE Pruritus, grade 3-4",Total (n=38),0 n (%)
same,"TRAE Rash maculo-papular, any grade",Total (n=38),1 (2.6) n (%)
same,"TRAE Rash maculo-papular, grade 3-4",Total (n=38),0 n (%)
same,"TRAE Sinus tachycardia, any grade",Total (n=38),1 (2.6) n (%)
same,"TRAE Sinus tachycardia, grade 3-4",Total (n=38),0 n (%)
same,"TRAE Skin fissures, any grade",Total (n=38),1 (2.6) n (%)
same,"TRAE Skin fissures, grade 3-4",Total (n=38),1 (2.6) n (%)
same,"TRAE Supraventricular extrasystoles, any grade",Total (n=38),1 (2.6) n (%)
same,"TRAE Supraventricular extrasystoles, grade 3-4",Total (n=38),0 n (%)
same,"TRAE Thrombocytopenia, any grade",Total (n=38),3 (7.9) n (%)
same,"TRAE Thrombocytopenia, grade 3-4",Total (n=38),2 (5.3) n (%)
same,"TRAE Upper respiratory tract infection, any grade",Total (n=38),1 (2.6) n (%)
same,"TRAE Upper respiratory tract infection, grade 3-4",Total (n=38),0 n (%)
same,"TRAE Urinary retention, any grade",Total (n=38),1 (2.6) n (%)
same,"TRAE Urinary retention, grade 3-4",Total (n=38),0 n (%)
same,"TRAE Urinary tract infection, any grade",Total (n=38),3 (7.9) n (%)
same,"TRAE Urinary tract infection, grade 3-4",Total (n=38),0 n (%)
same,"TRAE Ventricular arrhythmia, any grade",Total (n=38),3 (7.9) n (%)
same,"TRAE Ventricular arrhythmia, grade 3-4",Total (n=38),0 n (%)
same,"TRAE Ventricular extrasystoles, any grade",Total (n=38),1 (2.6) n (%)
same,"TRAE Ventricular extrasystoles, grade 3-4",Total (n=38),0 n (%)
same,"TRAE Vomiting, any grade",Total (n=38),2 (5.3) n (%)
same,"TRAE Vomiting, grade 3-4",Total (n=38),0 n (%)
same,"TRAE Weight loss, any grade",Total (n=38),1 (2.6) n (%)
same,"TRAE Weight loss, grade 3-4",Total (n=38),0 n (%)
same,TRAE constipation,Total (n=38),21.1%
same,TRAE dysgeusia,Total (n=38),23.7%
same,TRAE elevated ALT,Total (n=38),36.8%
same,TRAE elevated AST,Total (n=38),28.9%
same,"grade ≥ 3 TEAEs, patients",Total (n=38),36.8%
same,grade ≥ 3 TRAE PPE,Total (n=38),10.5%
same,"grade ≥ 3 TRAEs, patients",Total (n=38),28.9%
same,patients with at least one TEAE,Total (n=38),All the 38 patients
same,treatment-related deaths,Total (n=38),No treatment-related deaths occurred
same,"TRAE leading to treatment discontinuation, patients","Total (n=38), grade 3 PPE in 400 mg BID cohort",2.6%
same,"treatment-related SAE, patients","Total (n=38), thrombocytopenia in 600 mg QD cohort",2.6%

# Source: article PMC10088252
